Measurements taken from PubChem BioAssay (NCI).
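These data come from cells grown in 96-well plates and exposed to compound for 48 hours at five concentrations. TGI denotes the concentration required for complete inhibition of growth.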

What was measured:
Assay in all cases: growth of human tumour cells (NCI), 48 h
[1] = system: HOP-92 NSCLC
[2] = system: UACC-257 melanoma
[3] = system: MDA-N
[4] = system: U251 CNS
[5] = system: M14 melanoma
[6] = system: DU-145 prostate
[7] = system: SF-268 CNS
[8] = system: MCF7 breast
[9] = system: COLO 205 colon
[10] = system: BT-549 breast
[11] = system: EKVX NSCLC
[12] = system: IGROV1 ovarian
[13] = system: UACC-62 melanoma
[14] = system: SNB-19 CNS
[15] = system: MDA-MB-231 breast
[16] = system: SW-620 colon
[17] = system: SN12C renal
[18] = system: K-562 leukemia
[19] = system: MALME-3M melanoma
[20] = system: A549 NSCLC
[21] = system: MOLT-4 leukemia
[22] = system: UO-31 renal
[23] = system: PC-3 prostate
[24] = system: A498 renal
[25] = system: NCI-H460 lung
[26] = system: NCI/ADR-RES ovarian
[27] = system: SF-539 CNS
[28] = system: SR leukemia
[29] = system: SNB-75 CNS
[30] = system: HS 578T breast
[31] = system: SK-MEL-28 melanoma
[32] = system: HT29 colon
[33] = system: NCI-H23 lung
[34] = system: HOP-62 NSCLC
[35] = system: SK-MEL-2 melanoma
[36] = system: HCC-2998 colon
[37] = system: T-47D breast
[38] = system: RXF 393 renal
[39] = system: TK-10 renal
[40] = system: OVCAR-3 ovarian
[41] = system: SK-OV-3 ovarian
[42] = system: NCI-H226 lung
[43] = system: OVCAR-8 ovarian
[44] = system: HCT-15 colon
[45] = system: CAKI-1 renal
[46] = system: SF-295 CNS
[47] = system: MDA-MB-435
[48] = system: LOX IMVI melanoma
[49] = system: OVCAR-5 ovarian
[50] = system: SK-MEL-5 melanoma
[51] = system: HCT-116 colon
[52] = system: OVCAR-4 ovarian
[53] = system: NCI-H522 lung
[54] = system: KM12 colon
[55] = system: 786-0 renal
[56] = system: RPMI-8226 leukemia
[57] = system: ACHN renal
[58] = system: HL-60(TB) leukemia
[59] = system: CCRF-CEM leukemia

Measured: TGI

O=C1CC2(CCC(O)(c3cccc4ccccc34)C(C(=O)c3cccc4ccccc34)C2)C(=O)c2ccccc2N1 (centres undefined)
36.9 µM: [38]
23.6 µM: [25]
34.3 µM: [29]
36.7 µM: [1]
68 µM: [15]
40.4 µM: [34]
91.6 µM: [7]
47.7 µM: [14]
47.9 µM: [30]
> 100 µM: [2] | [3] | [4] | [5] | [6] | [8] | [9] | [10] | [11] | [12] | [13] | [16] | [17] | [18] | [19] | [20] | [21] | [22] | [23] | [24] | [26] | [27] | [28] | [31] | [32] | [33] | [35] | [36] | [37] | [39] | [40] | [41] | [42] | [43] | [44] | [45] | [46] | [47] | [48] | [49] | [50] | [51]

Nc1ccn(C2OC(COP(=O)(O)OCC3OC(n4cc(F)c(=O)[nH]c4=O)CC3O)C(O)C2O)c(=O)n1 (centres undefined)
> 88.6 µM: [28]
12.9 µM: [5]
99.3 µM: [24]
> 50.1 µM: [45]
> 100 µM: [1] | [2] | [52] | [53] | [3] | [4] | [6] | [7] | [8] | [9] | [10] | [11] | [12] | [13] | [14] | [15] | [16] | [17] | [18] | [19] | [20] | [22] | [23] | [26] | [27] | [29] | [30] | [31] | [32] | [35] | [36] | [54] | [55] | [37] | [38] | [56] | [39] | [40] | [41] | [42] | [43] | [44] | [46] | [47] | [48] | [49] | [50] | [51]
> 34.2 µM: [57]
7.95 µM: [21]
> 42.1 µM: [33]

CCC1([N+](=O)[O-])CC2C=CC1C2 (centres undefined)
> 100 µM: [1] | [2] | [52] | [53] | [3] | [4] | [5] | [6] | [7] | [8] | [9] | [10] | [11] | [12] | [13] | [14] | [15] | [16] | [17] | [18] | [58] | [59] | [19] | [20] | [21] | [22] | [23] | [24] | [25] | [26] | [27] | [28] | [29] | [30] | [31] | [32] | [33] | [34] | [35] | [54] | [55] | [37] | [38] | [56] | [39] | [40] | [41] | [42] | [43] | [44] | [57] | [45] | [46] | [47] | [48] | [49] | [50] | [51]
